From ChEMBL document CHEMBL1132527, “Synthesis, structural characterization and antitumor activity evaluations of copper complex with tetraazamacrocyclic ligand” (Bioorg Med Chem Lett, 1999)

What was measured:
Assay type in all cases: functional, cell-based
BEL-7404 tumor cell line [1] = assay: In vitro antitumor activity against BEL-7404 tumor cell lines at 10e-6 mol/L conentation; details: Homo sapiens
BEL-7404 tumor cell line [2] = assay: In vitro antitumor activity against BEL-7404 tumor cell lines at 10e-5 mol/L conentation; details: Homo sapiens
BEL-7404 tumor cell line [3] = assay: In vitro antitumor activity against BEL-7404 tumor cell lines at 10e-4 mol/L conentation; details: Homo sapiens
P388 [4] = assay: In vitro antitumor activity against P388 tumor cell lines at 10e-4 mol/L conentation; details: Mus musculus
BEL-7404 tumor cell line [5] = assay: In vitro antitumor activity against BEL-7404 tumor cell lines at 10e-8 mol/L conentation; details: Homo sapiens
P388 [6] = assay: In vitro antitumor activity against P388 tumor cell lines at 10e-5 mol/L conentation; details: Mus musculus
BEL-7404 tumor cell line [7] = assay: In vitro antitumor activity against BEL-7404 tumor cell lines at 10e-7 mol/L conentation; details: Homo sapiens

## Copper complex with 1,4,7,10-tetrakis(2-cyanolethyl-)-l,4,7,10-tetraazacyclododecane
BEL-7404 tumor cell line [1]
  inhibition: 78%
BEL-7404 tumor cell line [2]
  inhibition: 75.6%
BEL-7404 tumor cell line [3]
  inhibition: 63.3%
P388 [4]
  inhibition: 100%
BEL-7404 tumor cell line [5]
  inhibition: 10%
P388 [6]
  inhibition: 96.4%
BEL-7404 tumor cell line [7]
  inhibition: 5.6%
